Results reported in patent US20230357269A1 (LES LABORATOIRES SERVIER, priority 2020, published 2023).
Where two headings read alike, the source gives them in different places.

How the values were obtained:
[1] = other bond
[2] = target: human recombinant LRRK2 protein (Homo sapiens (Human), UniProt Q5S007); experiment: LRRK2 Kinase Activity Assay (ADP-Glo); format: biochemical; conditions: LRRK2 wt; LRRKtide peptide and ATP substrates; 1h-incubation at 37° C.
Outline: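 Recombinant human LRRK2 acted on LRRKtide peptide and ATP for 1 h at 37 °C. ADP formed was detected by ADP-Glo luminescence (ATP depletion, then ADP-to-ATP conversion and luciferase). IC50s came from curve fits over 10 concentrations (N=2).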

human recombinant LRRK2 protein, sequence (Q5S007 whole entry): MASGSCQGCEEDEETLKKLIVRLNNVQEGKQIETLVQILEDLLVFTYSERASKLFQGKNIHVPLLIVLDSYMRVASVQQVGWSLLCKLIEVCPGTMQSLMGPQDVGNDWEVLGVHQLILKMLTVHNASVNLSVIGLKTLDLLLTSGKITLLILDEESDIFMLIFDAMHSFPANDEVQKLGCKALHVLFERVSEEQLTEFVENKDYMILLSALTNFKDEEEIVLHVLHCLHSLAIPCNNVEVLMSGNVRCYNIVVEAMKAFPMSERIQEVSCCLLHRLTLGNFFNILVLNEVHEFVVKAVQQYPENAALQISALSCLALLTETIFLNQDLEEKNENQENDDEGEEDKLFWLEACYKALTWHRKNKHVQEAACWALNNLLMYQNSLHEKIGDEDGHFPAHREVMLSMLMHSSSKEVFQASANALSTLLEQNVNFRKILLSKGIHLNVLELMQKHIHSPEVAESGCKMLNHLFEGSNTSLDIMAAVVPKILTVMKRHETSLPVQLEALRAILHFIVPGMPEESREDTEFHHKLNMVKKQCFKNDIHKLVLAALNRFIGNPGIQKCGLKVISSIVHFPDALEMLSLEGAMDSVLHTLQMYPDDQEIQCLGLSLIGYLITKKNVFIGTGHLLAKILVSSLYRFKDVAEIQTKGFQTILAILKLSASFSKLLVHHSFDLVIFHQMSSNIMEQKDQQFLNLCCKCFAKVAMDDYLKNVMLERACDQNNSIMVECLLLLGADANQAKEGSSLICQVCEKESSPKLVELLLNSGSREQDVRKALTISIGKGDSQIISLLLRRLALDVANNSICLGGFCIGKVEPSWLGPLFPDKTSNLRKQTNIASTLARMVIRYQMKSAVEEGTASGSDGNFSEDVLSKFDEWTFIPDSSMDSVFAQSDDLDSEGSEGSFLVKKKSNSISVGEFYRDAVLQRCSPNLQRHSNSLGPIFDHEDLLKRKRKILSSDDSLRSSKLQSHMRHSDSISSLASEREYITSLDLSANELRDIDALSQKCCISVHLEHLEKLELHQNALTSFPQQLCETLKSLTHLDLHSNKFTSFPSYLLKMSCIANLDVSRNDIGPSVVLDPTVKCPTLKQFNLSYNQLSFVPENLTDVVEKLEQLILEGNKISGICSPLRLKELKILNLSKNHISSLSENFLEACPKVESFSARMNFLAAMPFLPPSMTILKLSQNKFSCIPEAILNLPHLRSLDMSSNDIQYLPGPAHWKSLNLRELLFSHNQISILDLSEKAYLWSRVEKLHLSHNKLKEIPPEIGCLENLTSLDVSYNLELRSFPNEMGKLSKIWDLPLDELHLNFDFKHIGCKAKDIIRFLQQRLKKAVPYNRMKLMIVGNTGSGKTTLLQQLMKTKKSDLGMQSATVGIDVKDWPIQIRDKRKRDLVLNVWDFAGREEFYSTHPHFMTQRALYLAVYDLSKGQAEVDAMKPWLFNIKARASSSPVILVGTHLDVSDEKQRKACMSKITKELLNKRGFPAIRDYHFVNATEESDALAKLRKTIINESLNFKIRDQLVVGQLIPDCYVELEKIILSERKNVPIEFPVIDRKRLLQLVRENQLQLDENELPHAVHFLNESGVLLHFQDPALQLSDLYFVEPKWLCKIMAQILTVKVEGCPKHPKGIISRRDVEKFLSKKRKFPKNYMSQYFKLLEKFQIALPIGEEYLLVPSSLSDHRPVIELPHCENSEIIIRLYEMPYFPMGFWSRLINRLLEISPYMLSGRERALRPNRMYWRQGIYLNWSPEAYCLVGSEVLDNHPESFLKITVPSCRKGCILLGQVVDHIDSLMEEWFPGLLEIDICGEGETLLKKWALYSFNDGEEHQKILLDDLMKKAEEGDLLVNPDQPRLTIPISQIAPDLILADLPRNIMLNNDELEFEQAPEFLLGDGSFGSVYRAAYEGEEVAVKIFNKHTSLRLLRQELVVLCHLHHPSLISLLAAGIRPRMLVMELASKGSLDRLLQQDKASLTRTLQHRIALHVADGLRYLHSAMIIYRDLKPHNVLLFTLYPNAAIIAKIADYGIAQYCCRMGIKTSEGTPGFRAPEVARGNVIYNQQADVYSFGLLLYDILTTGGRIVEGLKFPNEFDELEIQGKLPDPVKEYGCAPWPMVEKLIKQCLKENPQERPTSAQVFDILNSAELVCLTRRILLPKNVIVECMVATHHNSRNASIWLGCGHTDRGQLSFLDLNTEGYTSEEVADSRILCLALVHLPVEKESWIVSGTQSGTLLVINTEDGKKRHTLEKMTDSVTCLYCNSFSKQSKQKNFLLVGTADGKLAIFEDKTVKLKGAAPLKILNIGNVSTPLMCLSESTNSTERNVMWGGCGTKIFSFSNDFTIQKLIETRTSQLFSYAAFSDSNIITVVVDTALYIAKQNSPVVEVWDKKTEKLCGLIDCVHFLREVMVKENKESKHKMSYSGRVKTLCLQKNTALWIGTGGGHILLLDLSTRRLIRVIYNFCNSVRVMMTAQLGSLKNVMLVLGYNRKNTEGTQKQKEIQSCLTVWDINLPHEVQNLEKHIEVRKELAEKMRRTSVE

IC50 [2]	SMILES	further results
100 to 1000 nM	O=C1NCCCOc2ccc3[nH]nc(c3c2)-c2cnn(c2)C(C2CCOCC2)CO1 (centres unmarked) [Example 118, 6-(oxan-4-yl)-8,14-dioxa-4,5,10,19,20-pentaazatetracyclo[13.5.2.1^2,5.0^18,21]tricosa-1(20),2(23),3,15,17,21-hexaen-9-one]	–
< 10 nM	C[C@@H]1CCNC(=O)O[C@H](C)c2cccc(c2)-c2n[nH]c3ccc(cc23)O1 [Example 96, (7R,13R)-7,13-dimethyl-8,14-dioxa-10,19,20-triazatetracyclo[13.5.2.1^2,6.0^18,21]tricosa-1(20),2(23),3,5,15(22),16,18(21)-heptaen-9-one]	–

The remaining lines, values behind:

SMILES	IC50 [2]	further results
O=C1NCCCOc2ccc3c(c2)c(nn3C2CCCCO2)-c2cc(Br)cc(c2)CO1 (centres unmarked)	–	ring closure, yield of all isomers ([1]; from O=C(NCCCOc1ccc2c(c1)c(-c1cc(Br)cc(CO)c1)nn2C1CCCCO1)OCc1ccccc1, NaH, toluene, 1.6 mM, 140.0 °C, 42.0 h): 25.7%
COCC1CCOc2ccc3c(c2)c(nn3C2CCCCO2)-c2cccc(c2)COC(=O)N1 (centres unmarked)	–	ring closure, yield of all isomers ([1]; from COCC(CCOc1ccc2c(c1)c(-c1cccc(CO)c1)nn2C1CCCCO1)NC(=O)OCc1ccccc1, cesium carbonate, acetonitrile, 4.47 mM, 90.0 °C, 6.0 h): 62.3%
O=C1NCCCOc2ccc3[nH]nc(c3c2)-c2cc(F)cc(c2)CO1 [Example 3, 4-fluoro-8,14-dioxa-10,19,20-triazatetracyclo[13.5.2.1^2,6.0^18,21]tricosa-1(20), 2,4,6(23),15,17,21-heptaen-9-one]	< 10 nM	–
